Assay results: patent publication US12459951B2, “Compounds that interact with RAS superfamily proteins for treatment of cancers, inflammatory diseases, rasopathies, and fibrotic disease” (SHY Therapeutics, LLC, priority 2022, dated 2025)

Tests used:
[1] = tested on: JNK phosphorylation; assay: JNK Activation Assay (western blot), Panc-1; format: cell-based, human; settings: at 10 μM, Panc-1 pancreatic cancer cell line; starred symbols = activation
Summary of the method: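 KRas G12C Panc-1 cells treated 6 h at 37 °C with compound at 10 μM (0.3% DMSO), or serial dilutions for IC50. In Method 1 cells were serum-starved overnight (0.5% FBS) then stimulated with 1.5 ng/ml EGF for 15 min; Method 2 used 10% FBS without stimulation. Phospho-JNK (Thr183/Tyr185) measured by western blot.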

[2] = tested on: Erk1/2 phosphorylation; assay: Erk1/2 Phosphorylation Assay (western blot), Panc-1; format: cell-based, human; settings: at 10 μM, * = activation
Summary of the method: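 KRas G12D Panc-1 cells were treated 6 h at 37° C with compound at 10 μM or serial dilutions for IC50 (0.3% DMSO). In method 1, cells were serum-starved overnight (0.5% FBS) and then given 1.5 ng/ml EGF for 15 min. In method 2, cells stayed in 10% FBS without stimulation. Lysate phospho-Erk1/2 (Thr202/Tyr204) was read by western blot.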

With `CO[C@H]1CC[C@@H](Nc2nc(-c3nccn3C)nn3cc(-c4ccn(C(C)C)n4)c(C(C)C)c23)C1` (racemic) [Compound 36, rac 5-Isopropyl-6-(1-isopropyl-1H-pyrazol-3-yl)-N-((1R,3S)-3-methoxycyclopentyl)-2-(1-methyl-1H-imidazol-2-yl)pyrrolo[2,1-f][1,2,4]triazin-4-amine] the “% inh of JNK in Panc-1” value [1] was “H* (H* ≥ 100% activation)” and the “% inh of Erk1/2 phosphorylation in Panc-1” value [2] was “C (50-84% inhibition)”.
In the case of `COc1cnc(Nc2nc(-c3nccn3C)nn3cc(-c4ccn(C(C)C)n4)c(C)c23)nc1` [Compound 56, 6-(1-Isopropyl-1H-pyrazol-3-yl)-N-(5-methoxypyrimidin-2-yl)-5-methyl-2-(1-methyl-1H-imidazol-2-yl)pyrrolo[2,1-f][1,2,4]triazin-4-amine], the “% inh of JNK in Panc-1” value [1] is reported as “H* (H* ≥ 100% activation)” and the “% inh of Erk1/2 phosphorylation in Panc-1” value [2] is reported as “C (50-84% inhibition)”.
For `COc1ccnc(Nc2nc(-c3nccn3C)nn3cc(-c4ccn(C(C)C)n4)c(C)c23)n1` [Compound 53, 6-(1-Isopropyl-1H-pyrazol-3-yl)-N-(4-methoxypyrimidin-2-yl)-5-methyl-2-(1-methyl-1H-imidazol-2-yl)pyrrolo[2,1-f][1,2,4]triazin-4-amine], the “% inh of JNK in Panc-1” value [1] was “H* (H* ≥ 100% activation)” and the “% inh of Erk1/2 phosphorylation in Panc-1” value [2] was “D (85-100% inhibition)”.
For `Cc1c(-c2ccn(C(C)C)n2)cn2nc(-c3nccn3C)nc(Nc3cc(C4CC4)no3)c12` [Compound 69, 3-Cyclopropyl-N-(6-(1-isopropyl-1H-pyrazol-3-yl)-5-methyl-2-(1-methyl-1H-imidazol-2-yl)pyrrolo[2,1-f][1,2,4]triazin-4-yl)isoxazol-5-amine], the “% inh of JNK in Panc-1” value [1] was “H* (H* ≥ 100% activation)” and the “% inh of Erk1/2 phosphorylation in Panc-1” value [2] was “D* (85-100% activation)”.
In the case of `COC[C@@H]1CC[C@@H]1CNc1nc(-c2ccccn2)nn2cc(-c3ccn(C(C)C)n3)c(-c3ccccc3)c12` (racemic) [Compound 26, rac 6-(1-Isopropyl-1H-pyrazol-3-yl)-N-(((1S,2R)-2-(methoxymethyl)cyclobutyl)methyl)-5-phenyl-2-(pyridin-2-yl)pyrrolo[2,1-f][1,2,4]triazin-4-amine], the “% inh of JNK in Panc-1” value [1] is reported as “H* (H* ≥ 100% activation)” and the “% inh of Erk1/2 phosphorylation in Panc-1” value [2] is reported as “D (85-100% inhibition)”.
`Cc1c(-c2ccn(C(C)C)n2)cn2nc(-c3nccn3C)nc(Nc3ccncn3)c12` [Compound 55, 6-(1-Isopropyl-1H-pyrazol-3-yl)-5-methyl-2-(1-methyl-1H-imidazol-2-yl)-N-(pyrimidin-4-yl)pyrrolo[2,1-f][1,2,4]triazin-4-amine] was tested, and the “% inh of JNK in Panc-1” value [1] was “H* (H* ≥ 100% activation)” and the “% inh of Erk1/2 phosphorylation in Panc-1” value [2] was “A (1-25% inhibition)”.
For `COc1cc(Nc2nc(-c3nccn3C)nn3cc(-c4cccc(OC)n4)c(C)c23)ncn1` [Compound 65, 6-(6-Methoxypyridin-2-yl)-N-(6-methoxypyrimidin-4-yl)-5-methyl-2-(1-methyl-1H-imidazol-2-yl)pyrrolo[2,1-f][1,2,4]triazin-4-amine], the “% inh of JNK in Panc-1” value [1] was “H* (H* ≥ 100% activation)” and the “% inh of Erk1/2 phosphorylation in Panc-1” value [2] was “A (1-25% inhibition)”.
`Cc1c(-c2ccn(C(C)C)n2)cn2nc(-c3nccn3C)nc(Nc3nnco3)c12` [Compound 59, N-(6-(1-Isopropyl-1H-pyrazol-3-yl)-5-methyl-2-(1-methyl-1H-imidazol-2-yl)pyrrolo[2,1-f][1,2,4]triazin-4-yl)-1,3,4-oxadiazol-2-amine] was tested, and the “% inh of JNK in Panc-1” value [1] was “H* (H* ≥ 100% activation)” and the “% inh of Erk1/2 phosphorylation in Panc-1” value [2] was “C (50-84% inhibition)”.
`CCn1ccc(-c2cn3nc(-c4nccn4C)nc(Nc4cc(OC)ncn4)c3c2C)n1` [Compound 64, 6-(1-Ethyl-1H-pyrazol-3-yl)-N-(6-methoxypyrimidin-4-yl)-5-methyl-2-(1-methyl-1H-imidazol-2-yl)pyrrolo[2,1-f][1,2,4]triazin-4-amine] was tested, and the “% inh of JNK in Panc-1” value [1] was “H* (H* ≥ 100% activation)” and the “% inh of Erk1/2 phosphorylation in Panc-1” value [2] was “A (1-25% inhibition)”.
With `Cc1c(-c2ccn(C(C)C)n2)cn2nc(-c3nccn3C)nc(Nc3ccncc3)c12` [Compound 52, 6-(1-Isopropyl-1H-pyrazol-3-yl)-5-methyl-2-(1-methyl-1H-imidazol-2-yl)-N-(pyridin-4-yl)pyrrolo[2,1-f][1,2,4]triazin-4-amine] the “% inh of JNK in Panc-1” value [1] was 0 (0 = 0% inhibition) and the “% inh of Erk1/2 phosphorylation in Panc-1” value [2] was 0 (0% inhibition).
In the case of `COc1cccc(-c2cn3nc(-c4nccn4C)nc(O)c3c2-c2ccccc2)c1Cl` [Compound 28, 6-(2-Chloro-3-methoxyphenyl)-2-(1-methyl-1H-imidazol-2-yl)-5-phenylpyrrolo[2,1-f][1,2,4]triazin-4-ol], the “% inh of JNK in Panc-1” value [1] is reported as “H* (H* ≥ 100% activation)” and the “% inh of Erk1/2 phosphorylation in Panc-1” value [2] is reported as 0 (0% inhibition).
For `COc1cccc(-c2cn3nc(-c4nccn4C)nc(N[C@@H]4CC[C@H](OC)C4)c3c2-c2ccccc2)c1Cl` (racemic) [Compound 33, rac 6-(2-Chloro-3-methoxyphenyl)-N-((1R,3S)-3-methoxycyclopentyl)-2-(1-methyl-1H-imidazol-2-yl)-5-phenylpyrrolo[2,1-f][1,2,4]triazin-4-amine], the “% inh of JNK in Panc-1” value [1] was “G (G = 75-99% inhibition)” and the “% inh of Erk1/2 phosphorylation in Panc-1” value [2] was “D (85-100% inhibition)”.
`Cc1c(-c2ccn(C(C)C)n2)cn2nc(-c3nccn3C)nc(Nc3nc(C4CC4)no3)c12` [Compound 70, 3-Cyclopropyl-N-(6-(1-isopropyl-1H-pyrazol-3-yl)-5-methyl-2-(1-methyl-1H-imidazol-2-yl)pyrrolo[2,1-f][1,2,4]triazin-4-yl)-1,2,4-oxadiazol-5-amine] was tested, and the “% inh of JNK in Panc-1” value [1] was “H* (H* ≥ 100% activation)” and the “% inh of Erk1/2 phosphorylation in Panc-1” value [2] was “B* (26-49% activation)”.
For `COCCNc1nc(-c2nccn2C)nn2cc(-c3cccc(OC)c3Cl)c(-c3ccccc3)c12` [Compound 29, 6-(2-Chloro-3-methoxyphenyl)-N-(2-methoxyethyl)-2-(1-methyl-1H-imidazol-2-yl)-5-phenylpyrrolo[2,1-f][1,2,4]triazin-4-amine], the “% inh of JNK in Panc-1” value [1] was “H (H = 100% inhibition)” and the “% inh of Erk1/2 phosphorylation in Panc-1” value [2] was “D (85-100% inhibition)”.
With `COc1cccc(-c2cn3nc(-c4nccn4C)nc(N[C@@H]4CC[C@@H](OC)C4)c3c2-c2ccccn2)c1F` (racemic) [Compound 46, rac 6-(2-Fluoro-3-methoxyphenyl)-N-((1R,3R)-3-methoxycyclopentyl)-2-(1-methyl-1H-imidazol-2-yl)-5-(pyridin-2-yl)pyrrolo[2,1-f][1,2,4]triazin-4-amine] the “% inh of JNK in Panc-1” value [1] was “H* (H* ≥ 100% activation)” and the “% inh of Erk1/2 phosphorylation in Panc-1” value [2] was 0 (0% inhibition).
With `Cc1c(-c2ccn(C(C)C)n2)cn2nc(-c3nccn3C)nc(Nc3cnccn3)c12` [Compound 62, 6-(1-Isopropyl-1H-pyrazol-3-yl)-5-methyl-2-(1-methyl-1H-imidazol-2-yl)-N-(pyrazin-2-yl)pyrrolo[2,1-f][1,2,4]triazin-4-amine] the “% inh of JNK in Panc-1” value [1] was “H* (H* ≥ 100% activation)” and the “% inh of Erk1/2 phosphorylation in Panc-1” value [2] was “A (1-25% inhibition)”.
With `Cc1c(-c2ccn(C(C)C)n2)cn2nc(-c3nccn3C)nc(Nc3ccccn3)c12` [Compound 57, 6-(1-Isopropyl-1H-pyrazol-3-yl)-5-methyl-2-(1-methyl-1H-imidazol-2-yl)-N-(pyridin-2-yl)pyrrolo[2,1-f][1,2,4]triazin-4-amine] the “% inh of JNK in Panc-1” value [1] was “H* (H* ≥ 100% activation)” and the “% inh of Erk1/2 phosphorylation in Panc-1” value [2] was “A* (1-25% activation)”.
For `COc1cccc(-c2cn3nc(-c4nccn4C)nc(N[C@H]4C[C@H](OC)C4)c3c2-c2ccccc2)c1F` [Compound 42, 6-(2-Fluoro-3-methoxyphenyl)-N-((1r,3r)-3-methoxycyclobutyl)-2-(1-methyl-1H-imidazol-2-yl)-5-phenylpyrrolo[2,1-f][1,2,4]triazin-4-amine], the “% inh of JNK in Panc-1” value [1] was “H* (H* ≥ 100% activation)” and the “% inh of Erk1/2 phosphorylation in Panc-1” value [2] was “D (85-100% inhibition)”.
With `COc1cc(Nc2nc(-c3nccn3C)nn3cc(-c4ccn(C(C)C)n4)c(C)c23)n[nH]1` [Compound 51, 6-(1-Isopropyl-1H-pyrazol-3-yl)-N-(5-methoxy-1H-pyrazol-3-yl)-5-methyl-2-(1-methyl-1H-imidazol-2-yl)pyrrolo[2,1-f][1,2,4]triazin-4-amine] the “% inh of JNK in Panc-1” value [1] was “H* (H* ≥ 100% activation)” and the “% inh of Erk1/2 phosphorylation in Panc-1” value [2] was 0 (0% inhibition).
`CO[C@H]1CC[C@@H](Nc2nc(-c3ccccn3)nn3cc(-c4ccn(C(C)C)n4)c(-c4ccccc4)c23)C1` (racemic) [Compound 24, rac 6-(1-Isopropyl-1H-pyrazol-3-yl)-N-((1R,3S)-3-methoxycyclopentyl)-5-phenyl-2-(pyridin-2-yl)pyrrolo[2,1-f][1,2,4]triazin-4-amine] was tested, and the “% inh of JNK in Panc-1” value [1] was “H* (H* ≥ 100% activation)” and the “% inh of Erk1/2 phosphorylation in Panc-1” value [2] was 0 (0% inhibition).
For `COCC1CCN(c2nc(-c3ccccn3)nn3cc(-c4ccn(C(C)C)n4)c(-c4ccccc4)c23)C1` (racemic) [Compound 25, rac 6-(1-Isopropyl-1H-pyrazol-3-yl)-4-(3-(methoxymethyl)pyrrolidin-1-yl)-5-phenyl-2-(pyridin-2-yl)pyrrolo[2,1-f][1,2,4]triazine], the “% inh of JNK in Panc-1” value [1] was “H* (H* ≥ 100% activation)” and the “% inh of Erk1/2 phosphorylation in Panc-1” value [2] was 0 (0% inhibition).
`COc1cccc(-c2cn3nc(-c4nccn4C)nc(N[C@H]4C[C@@H](OC)C4)c3c2-c2ccccc2)c1Cl` [Compound 31, 6-(2-Chloro-3-methoxyphenyl)-N-((1s,3s)-3-methoxycyclobutyl)-2-(1-methyl-1H-imidazol-2-yl)-5-phenylpyrrolo[2,1-f][1,2,4]triazin-4-amine] was tested, and the “% inh of JNK in Panc-1” value [1] was “H* (H* ≥ 100% activation)” and the “% inh of Erk1/2 phosphorylation in Panc-1” value [2] was “D (85-100% inhibition)”.
